# Where two headings read alike, the source gives them in different places.
smiles,measurement,setting,value
Cc1cccc([C@H](C)c2cnc[nH]2)c1C [Dexmedetomidine],solubility of dexmedetomidine,in Duro-Tak 87-2979,less than 2%
same,solubility of dexmedetomidine,in Duro-Tak 387/87-2353 (acid functionalized acrylate adhesive),10-15%
same,solubility of dexmedetomidine,in hydroxyl functionalized acrylate polymer,less than 1%
same,solubility of dexmedetomidine,in lauryl lactate,5 to 10%
same,solubility of dexmedetomidine,in levulinic acid,~60%
same,solubility of dexmedetomidine,in oleic acid,~40%
same,solubility of dexmedetomidine,in propylene glycolmonolaurate,5 to 10%
